These results are taken from patent US20250129067A1 (Progentos Therapeutics, Inc., priority 2021, published 2025).

In general, IC50 refers to the point on the concentration scale where inhibition reaches its midpoint.

Read-outs that look alike come from different tables or passages of the source. A value given as a limit tells only on which side of the number the result lay.

In data set [1] the test system is Oligodendrocyte progenitor cells (OPCs). The data set is described as follows: In vitro OPC differentiation assay, GPR17 expression (immunocytochemistry). The following applies: 72 hours; for GPR17 Fold Induction (Over Vehicle; 3 μM): 3 μM (10× concentration, final 0.3 μM).
The target of another data set is PDGFRα (Homo sapiens (Human), UniProt P16234). The data set is described as follows: PDGFRα kinase enzyme assay (Promega PDGFRα Kinase Enzyme System, ADP-Glo). The following applies: 150 uM ATP. Type of data set: biochemical. The method in brief:
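Purified PDGFRα protein (20 ng) reacted with test compound per the Promega kinase system protocol. ADP formed was measured by ADP-Glo luminescence against a standard curve, giving IC50.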
(ADP-Glo first removes unused ATP, then detects ADP through luciferase.)

Data set [2] relates to Oligodendrocyte progenitor cells (OPCs). The data set is described as follows: In vitro OPC differentiation assay, MBP expression (immunocytochemistry).
For data set [3], the system named is GPR17+ cells (newly differentiated oligodendrocytes). As to the kind of experiment: In vivo OPC differentiation, GPR17+ cells in brain. The following applies: for In vivo GPR17+ cells, GPR17 Fold Induction (Over Vehicle): adult female C57BL/6 mice, PO or IP, treatment period 1-3 days, entire brain, fold change over vehicle treated animals.
[4] abbreviates: 5 μM (10× concentration, final 0.5 μM), fold change over vehicle.
[5] abbreviates: 11-point dose response, 10,000 nM to 0.169 nM, BLQ = below limit of quantitation, read-out: IC50 Values on PDGFRα Kinase Inhibition, IC50.
[6] abbreviates: 72 hours of treatment, fold change over vehicle.
Setting [7] is: primary rat OPCs, 5 μM (10x; final 0.5 μM per method), percent GPR17+ cells as fold change over vehicle.
Where [8] appears, read: 20 ng purified PDGFRα, Poly (Glu4Tyr1) substrate, two hours, 11-point dose response, read-out: IC50 Values on PDGFRα Kinase Inhibition.
Setting [9] is: Mus musculus, po, 24 h, read-out: GPR17 Fold Induction (Over Vehicle).

Chain of PDGFRα (P16234 24-1089): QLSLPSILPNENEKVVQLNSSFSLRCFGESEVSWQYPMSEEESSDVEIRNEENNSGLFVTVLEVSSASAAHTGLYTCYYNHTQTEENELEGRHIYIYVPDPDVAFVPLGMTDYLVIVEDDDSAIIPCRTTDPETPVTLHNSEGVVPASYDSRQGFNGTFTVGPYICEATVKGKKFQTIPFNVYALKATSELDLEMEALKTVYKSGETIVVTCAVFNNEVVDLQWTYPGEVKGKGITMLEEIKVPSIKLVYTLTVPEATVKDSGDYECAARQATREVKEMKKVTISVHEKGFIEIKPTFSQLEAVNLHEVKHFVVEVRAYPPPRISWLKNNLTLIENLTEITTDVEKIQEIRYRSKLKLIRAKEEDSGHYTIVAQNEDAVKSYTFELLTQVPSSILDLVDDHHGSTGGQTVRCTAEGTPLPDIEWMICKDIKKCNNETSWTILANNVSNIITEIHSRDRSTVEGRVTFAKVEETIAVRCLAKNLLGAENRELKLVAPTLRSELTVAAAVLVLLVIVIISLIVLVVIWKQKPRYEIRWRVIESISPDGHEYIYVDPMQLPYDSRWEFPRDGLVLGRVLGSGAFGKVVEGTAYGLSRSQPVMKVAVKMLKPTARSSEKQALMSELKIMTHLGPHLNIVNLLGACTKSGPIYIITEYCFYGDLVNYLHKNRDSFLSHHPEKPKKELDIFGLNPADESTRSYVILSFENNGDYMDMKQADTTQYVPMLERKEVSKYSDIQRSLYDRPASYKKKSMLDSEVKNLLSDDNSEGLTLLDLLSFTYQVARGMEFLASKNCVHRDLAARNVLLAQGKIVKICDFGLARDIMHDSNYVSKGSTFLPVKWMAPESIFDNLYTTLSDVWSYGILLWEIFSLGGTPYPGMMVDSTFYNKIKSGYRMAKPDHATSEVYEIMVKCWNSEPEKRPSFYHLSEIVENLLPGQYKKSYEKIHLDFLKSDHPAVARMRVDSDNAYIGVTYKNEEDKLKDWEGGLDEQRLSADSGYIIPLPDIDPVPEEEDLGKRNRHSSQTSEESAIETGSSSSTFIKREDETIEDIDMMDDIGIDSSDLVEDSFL

As for `Cn1cc(-c2cn3ncc(N4CCN(C(=O)OC(C)(C)C)CC4)c3cn2)cn1` [Compound 44, Tert-butyl 4-[6-(1-methyl-1H-pyrazol-4-yl)pyrazolo[1,5-a]pyrazin-3-yl)piperazine-1-carboxylate], the “GPR17 Fold Induction (Over Vehicle; 3 μM)” value in data set [1] (fold change over vehicle) came to 4.28. For the same compound, in data set [1] (setting [4]), the “GPR17 Fold Induction (Over Vehicle; 5 μM)” value amounted to 3.74. Further, on PDGFRα (setting [5]), the IC50 came to 638 nM. Further, the “MBP Fold Induction (Over vehicle)” value in data set [2] (setting [6]) came out at 1.75.
Regarding `CN(C[C@@H]1COCCO1)S(=O)(=O)Nc1ccc2ccc3ncc(-c4cnn(C)c4)cc3c(=O)c2c1` [MK 2461, reference compound], the “GPR17 Fold Induction (Over Vehicle; 5 μM)” value in data set [1] (setting [7]) is 7.10. The IC50 at PDGFRα (setting [8]) stood at 10.8 nM. In data set [2] (primary rat OPCs, 72 hours, 3 uM (10x; final 0.3 uM per method), percent MBP+ cells as fold change over vehicle), the “MBP Fold Induction (Over vehicle)” value worked out at 6.11.
For `CN(Cc1ccccc1)S(=O)(=O)N1CCN(c2cnn3cc(-c4cnn(C)c4)ccc23)CC1` [Compound 158, N-benzyl-N-methyl-4-(6-(1-methyl-1H-pyrazol-4-yl)pyrazolo[1,5-a]pyridin-3-yl)piperazine-1-sulfonamide], the “GPR17 Fold Induction (Over Vehicle; 3 μM)” value in data set [1] (fold change over vehicle) was 4.57. Further, the IC50 on PDGFRα (setting [5]) is > 10000 nM. Besides, the “MBP Fold Induction (Over vehicle)” value in data set [2] (setting [6]) was determined as 4.88.
The matching figures for `CC(C)(C)OC(=O)N1CCN(c2cnn3cc(-c4cnn(C5CCOCC5)c4)ccc23)CC1` [Compound 235]: 9.32, 467 nM and 10.35.
Turning to `Cn1cc(-c2ccc3c(N4CCN(C(=O)Cc5ccccc5)CC4)cnn3c2)cn1` [Compound 18, 6-(1-methyl-1H-pyrazol-4-yl)-3-[4-(phenylacetyl)piperazin-1-yl]pyrazolo[1,5-a]pyridine], the “GPR17 Fold Induction (Over Vehicle; 3 μM)” value in data set [1] (fold change over vehicle) was determined as 4.40. Also, the “GPR17 Fold Induction (Over Vehicle; 5 μM)” value in data set [1] (setting [4]) was 3.50. Moreover, at PDGFRα (setting [5]), the IC50 was 1650 nM. Also, the “MBP Fold Induction (Over vehicle)” value in data set [2] (setting [6]) is 1.77.
With `Cn1cc(-c2ccc3c(N4CCCN(c5ncc(Cc6ccccc6)cn5)CC4)cnn3c2)cn1` [Compound 37, 3-[4-(5-benzylpyrimidin-2-yl)-1,4-diazepan-1-yl]-6-(1-methyl-1H-pyrazol-4-yl)pyrazolo[1,5-a]pyridine], the “GPR17 Fold Induction (Over Vehicle; 3 μM)” value in data set [1] (fold change over vehicle) turned out to be 5.81. For the same compound, the “GPR17 Fold Induction (Over Vehicle; 5 μM)” value in data set [1] (setting [4]) came out at 7.65. Also, on PDGFRα (setting [5]), the IC50 is 673 nM. Moreover, in data set [2] (setting [6]), the “MBP Fold Induction (Over vehicle)” value is 2.95.
As for `C[C@H](OC(=O)N1CCN(c2cnn3cc(-c4cnn(C)c4)ccc23)CC1)c1ccccc1` [Compound 34, (S)-1-phenylethyl 4-(6-(1-methyl-1H-pyrazol-4-yl)pyrazolo[1,5-a]pyridin-3-yl)piperazine-1-carboxylate], in data set [1] (fold change over vehicle), the “GPR17 Fold Induction (Over Vehicle; 3 μM)” value is 5.16. Moreover, the “GPR17 Fold Induction (Over Vehicle; 5 μM)” value in data set [1] (setting [4]) stood at 5.12. In addition, the IC50 on PDGFRα (setting [5]) was determined as 786 nM. Moreover, the “MBP Fold Induction (Over vehicle)” value in data set [2] (setting [6]) was 2.00.
Take `Cn1cc(-c2ccc3c(N4CCN(c5ncc(Cc6c[nH]c7ccccc67)cn5)CC4)cnn3c2)cn1` [Compound 173, 3-[(2-{4-[6-(1-methylpyrazol-4-yl)pyrazolo[1,5-a]pyridin-3-yl]piperazin-1-yl}pyrimidin-5-yl)methyl]-1H-indole]: the “GPR17 Fold Induction (Over Vehicle; 3 μM)” value in data set [1] (fold change over vehicle) amounted to 6.75. In addition, at PDGFRα (setting [5]), the half-inhibitory concentration (IC50) amounted to 1100 nM. For the same compound, the “MBP Fold Induction (Over vehicle)” value in data set [2] (setting [6]) is recorded as 0.49.
For `Cn1cc(-c2cnc3c(N4CCN(c5ncc(C(O)c6ccc(F)cc6)cn5)CC4)cnn3c2)cn1` (stereo not shown) [Compound 74, (4-Fluorophenyl)(2-{4-[6-(1-methyl-1H-pyrazol-4-yl)pyrazolo[1,5-a]pyrimidin-3-yl]piperazin-1-yl}pyrimidin-5-yl)methanol] the same measures were 7.19, 563 nM and 5.83.
For the compound `C=C(c1ccc(F)cc1)c1cnc(N2CCN(c3cnn4cc(-c5cnn(C)c5)ccc34)CC2)nc1` [Compound 256, 3-(4-(5-(1-(4-fluorophenyl)vinyl)pyrimidin-2-yl)piperazin-1-yl)-6-(1-methyl-1H-pyrazol-4-yl)pyrazolo[1,5-a]pyridine], the “GPR17 Fold Induction (Over Vehicle; 3 μM)” value in data set [1] (fold change over vehicle) worked out at 4.15. Further, the IC50 at PDGFRα (setting [5]) came to 3200 nM. Moreover, the “MBP Fold Induction (Over vehicle)” value in data set [2] (setting [6]) was determined as 8.70.
For `c1ccc(Cc2cnc(N3CCN(c4cnn5cc(-c6cn[nH]c6)ccc45)CC3)nc2)cc1` [Compound 255, 3-[4-(5-benzylpyrimidin-2-yl)piperazin-1-yl]-6-(1H-pyrazol-4-yl)pyrazolo-[1,5-a]pyridine] the same measures were 8.56, 1140 nM and 2.58.
Take `Cn1cc(-c2ccc3c(N4CCN(C(=O)OC5CCC5)CC4)cnn3c2)cn1` [Compound 32, cyclobutyl 4-[6-(1-methyl-1H-pyrazol-4-yl)pyrazolo[1,5-a]pyridin-3-yl]piperazine-1-carboxylate]: in data set [1] (fold change over vehicle), the “GPR17 Fold Induction (Over Vehicle; 3 μM)” value is on record as 10.59. For the same compound, the “GPR17 Fold Induction (Over Vehicle; 5 μM)” value in data set [1] (setting [4]) worked out at 6.99. Besides, on PDGFRα (setting [5]), the IC50 came to 320 nM. Moreover, the “MBP Fold Induction (Over vehicle)” value in data set [2] (setting [6]) was found to be 2.96.
On to `Cn1cc(-c2ccc3c(N4CCN(c5ncc(C(O)Cc6ccccc6)cn5)CC4)cnn3c2)cn1` (stereo not shown) [Compound 167, 1-(2-{4-[6-(1-methyl-1H-pyrazol-4-yl)pyrazolo[1,5-a]pyridin-3-yl]piperazin-1-yl}pyrimidin-5-yl)-2-phenylethanol], for which the “GPR17 Fold Induction (Over Vehicle; 3 μM)” value in data set [1] (fold change over vehicle) amounted to 7.07. Further, the “MBP Fold Induction (Over vehicle)” value in data set [2] (setting [6]) is given as 16.83.
In the case of `Nc1nc(Nc2ccc3c(c2)CC[C@@H](N2CCCC2)CC3)nn1-c1cc2c(nn1)-c1ccccc1CCC2` [Bemcentinib, bemcentinib, reference compound], in data set [3], the “In vivo GPR17+ cells, GPR17 Fold Induction (Over Vehicle)” value is 1.09. For the same compound, in data set [1] (setting [7]), the “GPR17 Fold Induction (Over Vehicle; 5 μM)” value amounted to 2.99. For the same compound, the IC50 on PDGFRα (setting [8]) is 428 nM.
In the case of `Cn1cc(-c2ccc3c(N4CCN(c5ncn(Cc6ccccc6)n5)CC4)cnn3c2)cn1` [Compound 156, 3-(4-(1-benzyl-1H-1,2,4-triazol-3-yl)piperazin-1-yl)-6-(1-methyl-1H-pyrazol-4-yl)pyrazolo[1,5-a]pyridine], in data set [3] (setting [9]), the fold induction at 3 mg/kg was found to be 11.5. Also, in data set [1] (fold change over vehicle), the “GPR17 Fold Induction (Over Vehicle; 3 μM)” value was 3.92. Further, on PDGFRα (setting [5]), the IC50 is 245 nM.
The matching figures for `C[C@@H](OC(=O)N1CCN(c2cnn3cc(-c4cnn(C)c4)cnc23)CC1)c1ccccc1` [Compound 73, (1R)-1-Phenylethyl 4-[6-(1-methyl-1H-pyrazol-4-yl)pyrazolo[1,5-a]pyrimidin-3-yl]piperazine-1-carboxylate]: 1.77, 6.68 and 116 nM.
`Cn1cc(-c2ccc3c(N4CCC(c5ncc(Cc6ccccc6)cn5)CC4)cnn3c2)cn1` [Compound 148, 3-(4-(5-benzylpyrimidin-2-yl)piperidin-1-yl)-6-(1-methyl-1H-pyrazol-4-yl)pyrazolo[1,5-a]pyridine]: the fold induction at 3 mg/kg in data set [3] (setting [9]) worked out at 1.22. The “GPR17 Fold Induction (Over Vehicle; 3 μM)” value in data set [1] (fold change over vehicle) is on record as 7.82. Besides, the concentration for half-maximal inhibition (IC50) at PDGFRα (setting [5]) amounted to 8160 nM.
For `Cn1cc(-c2ccc3c(N4CCN(c5ncc(C(CO)c6ccc(F)cc6)cn5)CC4)cnn3c2)cn1` (stereo not shown) [Compound 257, 2-(4-fluorophenyl)-2-(2-(4-(6-(1-methyl-1H-pyrazol-4-yl)pyrazolo[1,5-a]pyridin-3-yl)piperazin-1-yl)pyrimidin-5-yl)ethan-1-ol] the same measures were 2.32, 10.85 and 79.8 nM.
In the case of `CNC(=O)c1cc(COc2nnc(Nc3ccc(Cl)cc3)c3ccoc23)ccn1` [Telatinib, telatinib, reference compound], the “In vivo GPR17+ cells, GPR17 Fold Induction (Over Vehicle)” value in data set [3] was 10.68. Further, the “GPR17 Fold Induction (Over Vehicle; 5 μM)” value in data set [1] (setting [7]) is 3.90. For the same compound, at PDGFRα (setting [8]), the IC50 is 68.8 nM.
For the compound `Cn1cc(-c2ccc3c(N4CCN(C(=O)CC(C)(C)C)CC4)cnn3c2)cn1` [Compound 17, 3-[4-(3,3-dimethylbutanoyl)piperazin-1-yl]-6-(1-methyl-1H-pyrazol-4-yl)pyrazolo[1,5-a]pyridine], the fold induction at 3.3 mg/kg in data set [3] (setting [9]) worked out at 1.14. Further, the “GPR17 Fold Induction (Over Vehicle; 3 μM)” value in data set [1] (fold change over vehicle) was 1.14. Besides, the IC50 on PDGFRα (setting [5]) worked out at 1600 nM.
On to `CC(OC(=O)N1CCN(c2cnn3cc(-c4cnn(C)c4)ccc23)CC1)c1ccc(C(F)(F)F)c(F)c1` (stereo not shown) [Compound 273, 1-(3-fluoro-4-(trifluoromethyl)phenyl)ethyl 4-(6-(1-methyl-1H-pyrazol-4-yl)pyrazolo[1,5-a]pyridin-3-yl)piperazine-1-carboxylate], for which the fold induction at 3 mg/kg in data set [3] (setting [9]) amounted to 3.78. For the same compound, the “GPR17 Fold Induction (Over Vehicle; 3 μM)” value in data set [1] (fold change over vehicle) is on record as 9.05. Further, the half-inhibitory concentration (IC50) at PDGFRα (setting [5]) is 13 nM.
Turning to `C[C@@H](OC(=O)N1CCN(c2cnc3cc(-c4cnn(C)c4)cnn23)CC1)c1ccc(Cl)cc1` [Compound 282, (R)-1-(4-chlorophenyl)ethyl 4-(7-(1-methyl-1H-pyrazol-4-yl)imidazo[1,2-b]pyridazin-3-yl)piperazine-1-carboxylate], the fold induction at 3 mg/kg in data set [3] (setting [9]) was 4.02. Also, the “GPR17 Fold Induction (Over Vehicle; 3 μM)” value in data set [1] (fold change over vehicle) is 6.40. For the same compound, the “IC50 Values on PDGFRα Kinase Inhibition, IC50 (nM)” value against PDGFRα (11-point dose response, 10,000 nM to 0.169 nM, BLQ = below limit of quantitation) was “BLQ”.
